Test results from US5814470A, “Melittin-related polypeptides, mixture sets and libraries thereof” (priority 1997, dated 1998).

Experiments:
[1] = Polypeptide conformation by CD spectroscopy (α-helix content); type: physicochemical; conditions: in the presence of 100 mM NaCl, 25° C.
Procedure: The library of sets of Example 1 was examined for the ability of each set to adopt an α-helical conformation. […] In the presence of 100 mM NaCl, the percent of α-helices varied from 20 to 40 percent.
All measurements were carried out on a Jasco J-720 circular dichroism spectropolarimeter (CD-Eaton, Md.), in conjunction with a Neslab RTE 110 waterbath and temperature controller at 25° C. (Dublin, Calif.). CD spectra were the average of a series of three to seven scans made at 0.2 nm intervals. Ellipticity was determined as means residue ellipticity, θ; the limits of error of measurements at 222 nm were ±500 (deg cm2 dmol^-1). For salt induced aggregation, stock solutions were separately prepared with 150 μM polypeptide sets in buffer (5 mM MOPS-NaOH, 100 mM NaCl).

Staphylococcus aureus = conditions: no change in optical density over 18 hours; slightly different conditions; cited from earlier work
[2] = tested on: human red blood cells (RBCs); assay: Hemolytic activity (HD50); type: cell-based; conditions: one hour at 37° C., OD 414 nm
Procedure: The hemolytic activities of the polypeptide mixture sets were determined by using human red blood cells (RBCs). The cells were washed three times with phosphate-buffered saline (PBS/35 mM phosphate buffer--0.15M NaCl, pH 7.0) and resuspended in PBS. The hemolytic activity of the polypeptide sets were determined as described in Blondelle et al., Biochem. Biophys. Acta, 1202:331-336 (1993) using 96 well tissue culture plates. In brief, 100 μl of 0.5 percent RBC solution were added to an equal volume of peptides in PBS. The plates were incubated for one hour at 37° C. and the optical density (OD) of the supernatant was measured at 414 nm. The concentration in peptide necessary to lyse 50 percent RBCs (HD50) was then determined for each peptide using a sigmoidal curve fitting method (Graphpad).

## Melittin
[1]
  percent of α-helices (helicity): about 20%
Staphylococcus aureus
  minimum inhibitory concentration (MIC): 25 µg/mL
[2]
  HD50 (concentration necessary to lyse 50 percent RBCs): 6 µg/mL
